Results as given in PubChem BioAssay AID328 (DTP/NCI, 2004).
Inconclusive results and toxic doses are left out.

Tested on: BDF1 mice, P388 leukemia ip, median survival T/C
Assay: NCI In Vivo Anticancer Drug Screen. Data for tumor model P388 Leukemia (intraperitoneal) in B6D2F1 (BDF1) mice
Conditions: endpoint: median survival time, higher = longer survival
Method in brief: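 Vehicle-dosed animals serve as the reference; survival of compound-dosed, tumour-implanted mice is divided by it.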

[1] = dose: 100.0 mg/kg/injection, schedule: Q04DX003 (ip), vehicle: saline with Tween-80
[2] = dose: 200.0 mg/kg/injection, schedule: Q01DX009 (ip), vehicle: saline with Tween-80

C[C@H]1C(=O)O[C@@H]2CCN3CC=C(COC(=O)[C@](C)(O)[C@@]1(C)O)[C@H]23
T/C (dose: 3.13 mg/kg/injection, schedule: Q01DX010 (ip), vehicle: saline): 100 % of control
T/C (dose: 6.2 mg/kg/injection, schedule: Q01DX009 (ip), vehicle: saline): 111 % of control
T/C (dose: 6.25 mg/kg/injection, schedule: Q01DX010 (ip), vehicle: saline): 100 % of control
T/C (dose: 12.5 mg/kg/injection, schedule: Q01DX009 (ip), vehicle: saline): 122 % of control
T/C (dose: 12.5 mg/kg/injection, schedule: Q01DX009 (ip), vehicle: water): 109 % of control
T/C (dose: 12.5 mg/kg/injection, schedule: Q01DX010 (ip), vehicle: saline): 104 % of control
T/C (dose: 25.0 mg/kg/injection, schedule: Q01DX009 (ip), vehicle: water): 86 % of control
T/C (dose: 25.0 mg/kg/injection, schedule: Q01DX010 (ip), vehicle: saline): 104 % of control
T/C (dose: 50.0 mg/kg/injection, schedule: Q01DX009 (ip), vehicle: water): 118 % of control
T/C (dose: 75.0 mg/kg/injection, schedule: Q01DX009 (ip), vehicle: water): 104 % of control

Cc1ccc(NC(=O)c2ccccc2C(=O)O)c(C)c1
T/C [1]: 100 % of control
T/C (dose: 200.0 mg/kg/injection, schedule: Q04DX003 (ip), vehicle: saline with Tween-80): 100 % of control
T/C (dose: 400.0 mg/kg/injection, schedule: Q04DX003 (ip), vehicle: saline with Tween-80): 118 % of control

C/C(=C\c1ccc(Cl)cc1)C(C)(C)C(=O)O
T/C (dose: 50.0 mg/kg/injection, schedule: Q01DX009 (ip), vehicle: saline with Tween-80): 104 % of control
T/C (dose: 100.0 mg/kg/injection, schedule: Q01DX009 (ip), vehicle: saline with Tween-80): 102 % of control
T/C [2]: 95 % of control

COc1cccc2c1C(=O)CC2
T/C (dose: 25.0 mg/kg/injection, schedule: Q01DX009 (ip), vehicle: Klucel (hydroxypropylcellulose) (HPC)): 100 % of control
T/C (dose: 50.0 mg/kg/injection, schedule: Q01DX009 (ip), vehicle: Klucel (hydroxypropylcellulose) (HPC)): 100 % of control
T/C (dose: 75.0 mg/kg/injection, schedule: Q04DX003 (ip), vehicle: Klucel (hydroxypropylcellulose) (HPC)): 100 % of control
T/C (dose: 100.0 mg/kg/injection, schedule: Q01DX009 (ip), vehicle: Klucel (hydroxypropylcellulose) (HPC)): 96 % of control
T/C (dose: 150.0 mg/kg/injection, schedule: Q04DX003 (ip), vehicle: Klucel (hydroxypropylcellulose) (HPC)): 95 % of control

Cc1cc2c(c3oc(C4(C)OC4C4OC4C)cc(=O)c13)C(=O)c1c(O)c(C3CC(C)(N(C)C)C(O)C(C)O3)cc(C3CC(N(C)C)C(O)C(C)O3)c1C2=O (centres undefined)
T/C (dose: 0.01 mg/kg/injection, schedule: Q01DX009 (oral), vehicle: saline): 105 % of control
T/C (dose: 0.03 mg/kg/injection, schedule: Q01DX009 (oral), vehicle: saline): 105 % of control
T/C (dose: 0.06 mg/kg/injection, schedule: Q01DX001 (oral), vehicle: saline): 95 % of control
T/C (dose: 0.06 mg/kg/injection, schedule: Q01DX009 (oral), vehicle: saline): 110 % of control
T/C (dose: 0.06 mg/kg/injection, schedule: Q01DX010 (ip), vehicle: saline): 109 % of control
T/C (dose: 0.12 mg/kg/injection, schedule: Q01DX001 (ip), vehicle: saline): 155 % of control
T/C (dose: 0.12 mg/kg/injection, schedule: Q01DX001 (oral), vehicle: saline): 104 % of control
T/C (dose: 0.12 mg/kg/injection, schedule: Q01DX009 (oral), vehicle: saline): 110 % of control
T/C (dose: 0.24 mg/kg/injection, schedule: Q01DX001 (ip), vehicle: saline): 190 % of control
T/C (dose: 0.24 mg/kg/injection, schedule: Q01DX001 (oral), vehicle: saline): 104 % of control
T/C (dose: 0.48 mg/kg/injection, schedule: Q01DX001 (ip), vehicle: saline): 200 % of control
T/C (dose: 0.48 mg/kg/injection, schedule: Q01DX001 (oral), vehicle: saline): 100 % of control
T/C (dose: 0.1 micrograms/kg/injection, schedule: Q01DX010 (ip), vehicle: carboxymethylcellulose (CMC)): 95 % of control
T/C (dose: 0.1 micrograms/kg/injection, schedule: Q01DX010 (ip), vehicle: other): 113 % of control
T/C (dose: 0.2 micrograms/kg/injection, schedule: Q01DX010 (ip), vehicle: carboxymethylcellulose (CMC)): 95 % of control
T/C (dose: 0.2 micrograms/kg/injection, schedule: Q01DX010 (ip), vehicle: other): 118 % of control
T/C (dose: 0.3 micrograms/kg/injection, schedule: Q01DX010 (ip), vehicle: saline): 100 % of control
T/C (dose: 0.3 micrograms/kg/injection, schedule: Q01DX010 (ip), vehicle: steriod suspending solution): 95 % of control
T/C (dose: 0.5 micrograms/kg/injection, schedule: Q01DX010 (ip), vehicle: carboxymethylcellulose (CMC)): 104 % of control
T/C (dose: 0.5 micrograms/kg/injection, schedule: Q01DX010 (ip), vehicle: other): 109 % of control
T/C (dose: 0.5 micrograms/kg/injection, schedule: Q01DX010 (ip), vehicle: saline): 116 % of control
T/C (dose: 0.6 micrograms/kg/injection, schedule: Q01DX010 (ip), vehicle: saline): 95 % of control
T/C (dose: 0.6 micrograms/kg/injection, schedule: Q01DX010 (ip), vehicle: steriod suspending solution): 120 % of control
T/C (dose: 1.0 micrograms/kg/injection, schedule: Q01DX010 (ip), vehicle: other): 109 % of control
T/C (dose: 1.0 micrograms/kg/injection, schedule: Q01DX010 (ip), vehicle: saline): 120 % of control
T/C (dose: 1.3 micrograms/kg/injection, schedule: Q01DX010 (ip), vehicle: saline): 122 % of control
T/C (dose: 2.0 micrograms/kg/injection, schedule: Q01DX010 (ip), vehicle: other): 113 % of control
T/C (dose: 4.0 micrograms/kg/injection, schedule: Q01DX010 (ip), vehicle: carboxymethylcellulose (CMC)): 118 % of control
T/C (dose: 4.0 micrograms/kg/injection, schedule: Q01DX010 (ip), vehicle: saline): 159 % of control
T/C (dose: 5.0 micrograms/kg/injection, schedule: Q01DX010 (ip), vehicle: carboxymethylcellulose (CMC)): 175 % of control
T/C (dose: 5.0 micrograms/kg/injection, schedule: Q01DX010 (ip), vehicle: steriod suspending solution): 150 % of control
T/C (dose: 6.0 micrograms/kg/injection, schedule: Q01DX009 (ip), vehicle: saline): 155 % of control
T/C (dose: 8.0 micrograms/kg/injection, schedule: Q01DX010 (ip), vehicle: saline): 163 % of control
T/C (dose: 10.0 micrograms/kg/injection, schedule: Q01DX010 (ip), vehicle: carboxymethylcellulose (CMC)): 190 % of control
T/C (dose: 10.0 micrograms/kg/injection, schedule: Q01DX010 (ip), vehicle: steriod suspending solution): 160 % of control
T/C (dose: 12.0 micrograms/kg/injection, schedule: Q01DX009 (ip), vehicle: saline): 170 % of control
T/C (dose: 16.0 micrograms/kg/injection, schedule: Q01DX010 (ip), vehicle: saline): 118 % of control
T/C (dose: 20.0 micrograms/kg/injection, schedule: Q01DX010 (ip), vehicle: saline): 154 % of control
T/C (dose: 20.0 micrograms/kg/injection, schedule: Q01DX010 (ip), vehicle: steriod suspending solution): 180 % of control
T/C (dose: 30.0 micrograms/kg/injection, schedule: Q01DX010 (ip), vehicle: saline): 109 % of control
T/C (dose: 32.0 micrograms/kg/injection, schedule: Q01DX010 (ip), vehicle: other): 177 % of control
T/C (dose: 60.0 micrograms/kg/injection, schedule: Q01DX010 (ip), vehicle: saline): 86 % of control

O=C1c2ccccc2C(=O)c2c(Sc3ccccc3)cccc21
T/C [2]: 95 % of control

[Cl][Pt+2][Cl].[NH-]CC1(C[NH-])CCC1
T/C (dose: 0.4 mg/kg/injection, schedule: Q01DX009 (ip), vehicle: suspension in saline): 156 % of control
T/C (dose: 0.79 mg/kg/injection, schedule: Q01DX009 (ip), vehicle: suspension in saline): 154 % of control
T/C (dose: 1.56 mg/kg/injection, schedule: Q01DX009 (ip), vehicle: suspension in saline): 250 % of control
T/C (dose: 3.12 mg/kg/injection, schedule: Q01DX009 (ip), vehicle: suspension in saline): 250 % of control
T/C (dose: 6.25 mg/kg/injection, schedule: Q01DX009 (ip), vehicle: suspension in saline): 169 % of control
T/C (dose: 12.5 mg/kg/injection, schedule: Q01DX009 (ip), vehicle: suspension in saline): 104 % of control

CN1CCN=C1c1ccc(NC(=O)c2ccc(C(=O)Nc3ccc(C4=NCCN4C)cc3)cc2)cc1
T/C (dose: 3.13 mg/kg/injection, schedule: Q04DX003 (ip), vehicle: saline): 100 % of control
T/C (dose: 4.0 mg/kg/injection, schedule: Q01DX009 (ip), vehicle: saline): 213 % of control
T/C (dose: 6.0 mg/kg/injection, schedule: Q01DX009 (ip), vehicle: saline): 240 % of control
T/C (dose: 6.25 mg/kg/injection, schedule: Q04DX003 (ip), vehicle: saline): 95 % of control
T/C (dose: 9.0 mg/kg/injection, schedule: Q01DX009 (ip), vehicle: saline): 245 % of control

N#Cc1cnc2nc1NCCCCCCC2
T/C [1]: 86 % of control

Clc1ccc2c(c1)CN1Cc3cc(Cl)ccc3C2C1
T/C (dose: 50.0 mg/kg/injection, schedule: Q01DX001 (ip), vehicle: saline with Tween-80): 108 % of control
T/C (dose: 100.0 mg/kg/injection, schedule: Q01DX001 (ip), vehicle: saline with Tween-80): 108 % of control
T/C (dose: 200.0 mg/kg/injection, schedule: Q01DX001 (ip), vehicle: saline with Tween-80): 97 % of control
